Where two headings read alike, the source gives them in different places.

The record followed here is patent EP4745138A1, “THIO-GLUTARIMIDO ISOINDOLINONE DERIVATIVE, BIFUNCTIONAL PROTEIN DEGRADER CONTAINING SAME, AND USES THEREOF” (Gluetacs Therapeutics (Shanghai) Co., Ltd., priority 2023, dated 2025).

Experiment [1] has as its system MM.1S. Briefly: Tumor cell proliferation inhibition (CellTiter-Meiluncell Luminescent Cell Viability Assay). The following applies: Homo sapiens, MM1.S; for inhibition at 0.01 µM: read-out: Inhibition Rate at 10 nM (%); for inhibition at 0.5 µM: read-out: Inhibition Rate at 500 nM (%). Type of experiment: cell-based. The gist of the method: (§1)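 Following overnight seeding, tumor cells received serial compound dilutions to final levels that included 10 nM and 500 nM. Viability was assessed by luminescence at the end of the specified exposure time. Cultures were kept at 37°C with 5% CO2.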

The test system of experiment [2] is MV-4-11. The description is as above. Type of experiment: cell-based. The settings on record: Homo sapiens, 96 hours; for inhibition at 0.01 µM: MV4-11, 10 nM, read-out: Inhibition Rate at 10 nM (%); for inhibition at 0.5 µM: MV4-11, 500 nM, read-out: Inhibition Rate at 500 nM (%). The gist of the method: as §1
Experiment [3] relates to SW620. Described as above. The format is cell-based. The settings on record: Homo sapiens, 96 hours, Table I-6, IRAK4 inhibitors; for inhibition at 0.01 µM: SW-620, 10 nM, read-out: Inhibition Rate at 10 nM (%); for inhibition at 0.5 µM: SW-620, 500 nM, read-out: Inhibition Rate at 500 nM (%). The gist of the method: as §1
The test system of experiment [4] is JEKO-1. The description is as above. The format is cell-based. The settings on record: Homo sapiens, 96 hours, Table I-6, IRAK4 inhibitors; for inhibition at 0.01 µM: 10 nM, read-out: Inhibition Rate at 10 nM (%); for inhibition at 0.5 µM: 500 nM, read-out: Inhibition Rate at 500 nM (%). Put shortly:
as §1

Experiment [5] concerns the target T1, human Cereblon WT GST-tagged protein (Homo sapiens, UniProt Q96SW2).
T1 construct: purchased CISBIO 64BDCRBNPEH
Briefly: CRBN-binding affinity, HTRF (CEREBLON BINDING kit). The settings on record: for inhibition at 0.5 µM: read-out: Inhibition Rate at 0.5 µM (%); for inhibition at 2 µM: read-out: Inhibition Rate at 2 µM (%). Put shortly: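 Compounds are serially diluted in diluent #9 (1X) and added at final 2 µM and 0.5 µM. GST-tagged wild-type Cereblon is added next, followed by premixed thalidomide-red reagent and anti-GST Eu antibody, and HTRF signal is measured.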

The target of experiment [6] is T2, CDK9 (Homo sapiens, UniProt P50750).
T2 construct: endogenous in cells; host or cells: MDA-MB-231
Put plainly: Western blot, target protein degradation in MDA-MB-231 Cell. The format is cell-based. The following applies: substrate protein remaining %, treated at 500 nM and 50 nM, 24 hours. As for the experimental part: Conventional Western blot assay was performed to evaluate the effects of the compounds of the present disclosure on the expression of target proteins in cells.
(1) Cell Seeding and Protein Harvesting: The selected cells were processed according to the cell seeding procedure and protein harvesting procedure in Table II-2. Table II-2 Cell Seeding and Protein Harvesting Procedures
(2) To the collected supernatant, 5X SDS sample loading buffer was added, followed by denaturation at 95°C for 5 minutes. The denatured samples were then separated by SDS-PAGE electrophoresis on a polyacrylamide gel. Proteins were transferred to a nitrocellulose membrane (0.45 µm NC membrane), blocked with blocking buffer at room temperature for 1 hour, and subjected to antibody incubation and development procedures according to the antibody manufacturer's instructions (Cell Signaling Technology).
Half-Maximal Degradation Concentration value (the drug concentration required for degrading proteins by 50%, abbreviated as DC50) reads method: comparing the grayscale values of Western blot bands from drug-treated samples with those from blank DMSO-treated controls, and identifying the drug concentration range at which the grayscale value is half that of the DMSO-treated control bands.
DC50 values can be calculated using ImageJ software to measure grayscale values of Western blot bands from drug-treated samples. The concentration-response curve is fitted to estimate the drug concentration corresponding to half the grayscale value.
Target protein remaining (%) refers to the percentage of target protein remaining in cells after treatment with protein degrader compounds.
Calculation method for target protein remaining (%): Use ImageJ software to measure grayscale values of Western blot bands from drug (protein degrader)-treated samples. The grayscale value of drug-treated bands is divided by that of internal control protein bands, and the resulting quotient is normalized to obtain the relative percentage of remaining target protein after protein degrader treatment. Target protein degradation rate(%) = 1−target protein remaining(%). [formula]
(In general: In western blotting, separated proteins are transferred to a membrane and probed.)

Experiment [7] has as its system MCF-7. Put plainly: Tumor cell proliferation inhibition (CellTiter-Meiluncell Luminescent Cell Viability Assay). The following applies: Homo sapiens, 96 hours, Table I-2, ALK inhibitors. Type of experiment: cell-based. Put shortly:
as §1

Where [8] appears, read: MM.1S, 10 nM, 96 hours, Table I-6, IRAK4 inhibitors.
The mark [9] stands for this setting: MM.1S, 500 nM, 96 hours, Table I-6, IRAK4 inhibitors.

T1 sequence (Q96SW2 whole entry): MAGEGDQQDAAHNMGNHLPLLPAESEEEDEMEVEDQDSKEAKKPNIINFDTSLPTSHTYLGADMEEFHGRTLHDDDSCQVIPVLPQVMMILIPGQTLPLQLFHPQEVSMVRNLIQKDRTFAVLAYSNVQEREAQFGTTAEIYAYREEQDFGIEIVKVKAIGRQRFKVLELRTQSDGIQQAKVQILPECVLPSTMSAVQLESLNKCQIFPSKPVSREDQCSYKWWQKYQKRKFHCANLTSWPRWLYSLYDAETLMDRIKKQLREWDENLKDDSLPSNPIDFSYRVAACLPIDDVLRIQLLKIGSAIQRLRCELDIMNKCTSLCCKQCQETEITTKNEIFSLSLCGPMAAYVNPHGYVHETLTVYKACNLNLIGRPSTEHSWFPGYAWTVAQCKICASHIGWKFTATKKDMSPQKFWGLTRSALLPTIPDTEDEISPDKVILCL
T2 sequence (P50750 whole entry): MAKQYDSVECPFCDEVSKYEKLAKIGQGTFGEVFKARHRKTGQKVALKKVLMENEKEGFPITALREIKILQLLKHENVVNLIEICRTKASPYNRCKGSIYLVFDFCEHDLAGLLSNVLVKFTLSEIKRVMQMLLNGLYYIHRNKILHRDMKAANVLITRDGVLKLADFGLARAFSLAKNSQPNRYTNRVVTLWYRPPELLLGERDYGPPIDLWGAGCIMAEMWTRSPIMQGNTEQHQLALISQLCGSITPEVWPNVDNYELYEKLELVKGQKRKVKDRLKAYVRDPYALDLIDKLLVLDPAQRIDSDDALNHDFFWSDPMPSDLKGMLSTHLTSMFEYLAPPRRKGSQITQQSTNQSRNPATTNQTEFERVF

For `O=C1CCC(N2Cc3cc(CN4CCC(n5cc(NC(=O)c6coc(-c7ccnc(NCC8CC8)c7)n6)c(C(F)F)n5)CC4)ccc3C2=S)C(=O)N1` (stereo not shown) [GT-05286, 2-(2-((cyclopropylmethyl)amino)pyridin-4-yl)-N-(3-(difluoromethyl)-1-(1-((2-(2,6-dioxopiperidin-3-yl)-1-thioxoisoindolin-5-yl)methyl)piperidin-4-yl)-1H-pyrazol-4-yl)oxazole-4-carboxamide], the inhibition (usually the drop in the measured response relative to a control, in per cent) at 0.01 µM in experiment [1] (setting [8]) was 50 to 60%; in experiment [2] (Table I-6, IRAK4 inhibitors), 80 to 100%; in experiment [3], 60 to 70%; in experiment [4], 10 to 20%. The inhibition at 0.5 µM in experiment [1] (setting [9]) fell in the range of 80 to 100%; in experiment [2] (Table I-6, IRAK4 inhibitors) it was 80 to 100%; in experiment [3] it was 70 to 80%; in experiment [4], 80 to 100%; in experiment [5], 30 to 40%. For the same compound, the inhibition at 2 µM in experiment [5] lay in the range of 60 to 80%.

As to `O=C1CCC(N2Cc3cc(CN4CCC(n5cc(NC(=O)c6cnn7ccc(N8CCOCC8)nc67)c(C(F)F)n5)CC4)ccc3C2=S)C(=O)N1` (stereo not shown) [GT-05098, N-(3-(difluoromethyl)-1-(1-((2-(2,6-dioxopiperidin-3-yl)-1-thioxoisoindolin-5-yl)methyl)piperidin-4-yl)-1H-pyrazol-4-yl)-5-morpholinopyrazolo[1,5-a]pyrimidine-3-carboxamide], the inhibition at 0.01 µM is 20 to 30% in experiment [1] (setting [8]); 20 to 30% in experiment [2] (Table I-6, IRAK4 inhibitors); 10 to 20% in experiment [3]; 5 to 10% in experiment [4]. In addition, the inhibition at 0.5 µM was 80 to 100% in experiment [1] (setting [9]); 80 to 100% in experiment [2] (Table I-6, IRAK4 inhibitors); 40 to 50% in experiment [3]; 20 to 30% in experiment [4]; 80 to 100% in experiment [5]. Besides, in experiment [5], the inhibition at 2 µM fell in the range of 80 to 100%.

Turning to `N#CC1(CNc2cccc(-c3cc(NC4CCN(Cc5cccc6c5CN(C5CCC(=O)NC5=O)C6=S)CC4)ncc3Cl)n2)CCOCC1` (stereo not shown) [GT-08687, 4-(((5'-chloro-2'-((1-((2-(2,6-dioxopiperidin-3-yl)-1-thioxoisoindolin-4-yl)methyl)piperidin-4-yl)amino)-[2,4'-bipyridin]-6-yl)amino)methyl)tetrahy dro-2H-pyran-4-carbonitrile], in experiment [6], the “Degradation of substrate protein CDK9” value is reported as “A (0% ≤ substrate protein remaining % ≤ 80%)”. In experiment [5], the inhibition at 0.5 µM lay within 30 to 40% and the inhibition at 2 µM is 60 to 80%.

In the case of `N#CC1(CNc2nc(-c3cc(NC4CCN(Cc5cccc6c5CN(C5CCC(=O)NC5=O)C6=S)CC4)ncc3Cl)cs2)CCOCC1` (stereo not shown) [GT-08685, 4-(((4-(5-chloro-2-((1-((2-(2,6-dioxopiperidin-3-yl)-1-thioxoisoindolin-4-yl)methyl)piperidin-4-yl)amino)pyridin-4-yl)thiazol-2-yl)amino)methyl)tetrahy dro-2H-pyran-4-carbonitrile], the “Degradation of substrate protein CDK9” value in experiment [6] was “A (0% ≤ substrate protein remaining % ≤ 80%)”. In experiment [5], the inhibition at 0.5 µM is 53 to 60% and the inhibition at 2 µM is 80 to 100%.

On to `O=C1CCC(N2Cc3cc(CN4CCC(n5cc(NC(=O)c6cnn7ccc(N8C[C@H]9C[C@@H]8CO9)nc67)c(C(F)F)n5)CC4)ccc3C2=S)C(=O)N1` (stereo partly drawn) [GT-05321, 5-((1R,4R)-2-oxa-5-azabicyclo[2.2.1]heptan-5-yl)-N-(3-(difluoromethyl)-1-(1-((2-(2,6-dioxopiperidin-3-yl)-1-thioxoisoindolin-5-yl)methyl)piperidin-4-yl)-1H-pyrazol-4-yl)pyrazolo[1,5-a]pyrimidine-3-carboxamide], for which the inhibition at 0.01 µM in experiment [1] (setting [8]) fell in the range of 30 to 40%; in experiment [2] (Table I-6, IRAK4 inhibitors), 40 to 50%; in experiment [3], 30 to 40%; in experiment [4], 5 to 10%. The inhibition at 0.5 µM lay in the range of 80 to 100% in experiment [1] (setting [9]); 80 to 100% in experiment [2] (Table I-6, IRAK4 inhibitors); 70 to 80% in experiment [3]; 40 to 50% in experiment [4]; 60 to 80% in experiment [5]. Moreover, the inhibition at 2 µM in experiment [5] was in the range of 80 to 100%.

Regarding `N#CC1(CNc2nc(-c3cc(NC4CCN(Cc5ccc6c(c5)CN(C5CCC(=O)NC5=O)C6=S)CC4)ncc3Cl)cs2)CCOCC1` (stereo not shown) [GT-08681, 4-(((4-(5-chloro-2-((1-((2-(2,6-dioxopiperidin-3-yl)-1-thioxoisoindolin-5-yl)methyl)piperidin-4-yl)amino)pyridin-4-yl)thiazol-2-yl)amino)methyl)tetrahy dro-2H-pyran-4-carbonitrile], the “Degradation of substrate protein CDK9” value in experiment [6] is “A (0% ≤ substrate protein remaining % ≤ 80%)”. Besides, in experiment [5], the inhibition at 0.5 µM is 53 to 60% and the inhibition at 2 µM lay within 80 to 100%.

As to `CC[C@@H]1[C@H](F)C(=O)N[C@@H]1COc1nccc2cc(C(N)=O)c(OC)cc12` [PF06650833, PF-06650833, reference compound], the inhibition at 0.01 µM in experiment [1] (96 h) is 0 to 5%; in experiment [2] (Table I-6, IRAK4 inhibitors), 20 to 30%; in experiment [3] it was 10 to 20%; in experiment [4], 10 to 20%. Besides, the inhibition at 0.5 µM in experiment [1] (96 h) was 0 to 5%; in experiment [2] (Table I-6, IRAK4 inhibitors), 20 to 30%; in experiment [3], 10 to 20%; in experiment [4], 20 to 30%.

Take `O=C1CCC(N2Cc3cc(CN4CCN(c5ccc(CC(=O)Nc6cc(C7CCC7)[nH]n6)cc5)CC4)ccc3C2=S)C(=O)N1` (stereo not shown) [GT-08684, N-(5-cyclobutyl-1H-pyrazol-3-yl)-2-(4-(4-((2-(2,6-dioxopiperidin-3-yl)-1-thioxoisoindolin-5-yl)methyl)piperazin-1-yl)phenyl)acetamide]: the “Degradation of substrate protein CDK9” value in experiment [6] is “A (0% ≤ substrate protein remaining % ≤ 80%)”. For the same compound, in experiment [5], the inhibition at 0.5 µM was in the range of 60 to 80% and the inhibition at 2 µM was in the range of 80 to 100%.

Regarding `O=C1CCC(N2Cc3ccc(CN4CCN(c5ccc(CC(=O)Nc6cc(C7CCC7)[nH]n6)cc5)CC4)cc3C2=S)C(=O)N1` (stereo not shown) [GT-08753, N-(5-cyclobutyl-1H-pyrazol-3-yl)-2-(4-(4-((2-(2,6-dioxopiperidin-3-yl)-3-thioxoisoindolin-5-yl)methyl)piperazin-1-yl)phenyl)acetamide], the “Degradation of substrate protein CDK9” value in experiment [6] was “A (0% ≤ substrate protein remaining % ≤ 80%)”. In experiment [5], the inhibition at 0.5 µM was 60 to 80% and the inhibition at 2 µM was 80 to 100%.

As to `Cc1cc(Nc2ncc(Cl)c(Nc3ccccc3S(=O)(=O)C(C)C)n2)c(OC(C)C)cc1C1CCN(Cc2ccc3c(c2)CN(C2CCC(=O)NC2=O)C3=S)CC1` (stereo not shown) [GT-08674, 3-(5-((4-(4-((5-chloro-4-((2-(isopropylsulfonyl)pheny 1)amino)pyrimidin-2-yl)amino)-5-isopropoxy-2-methylphenyl)piperidin-1-yl)methyl)-1-thioxoisoindolin-2-yl)piperidine-2,6-dione], the inhibition at 0.01 µM in experiment [1] (MM.1S, 10 nM, 96 hours, Table I-2, ALK inhibitors) was 30 to 40%; in experiment [2] (Table I-2, ALK inhibitors) it was 0 to 10%; in experiment [7] (MCF7, 10 nM, read-out: Inhibition Rate at 10 nM (%)), 30 to 40%. For the same compound, the inhibition at 0.5 µM lay within 80 to 100% in experiment [1] (MM.1S, 500 nM, 96 hours, Table I-2, ALK inhibitors); 30 to 40% in experiment [2] (Table I-2, ALK inhibitors); 60 to 70% in experiment [7] (MCF7, 500 nM, read-out: Inhibition Rate at 500 nM (%)); 40 to 53% in experiment [5]. For the same compound, the inhibition at 2 µM in experiment [5] was 53 to 60%.
